Test results reported in article PMC7473324, “Histo-blood group antigens as divergent factors of groups A and C rotaviruses circulating in humans and different animal species” (Emerging Microbes & Infections, 2020).

Biological target: T1, GST-VP8* of P[16] murine RVA EMcN (Murine rotavirus EMcN, UniProt Q6WVQ1)
T1 construct: gene VP4; VP8* core aa 46-231, cut from VP4 precursor; N-terminal GST fusion kept; E. coli BL21
Assay: CFG glycan array, GST-VP8* detected with fluorescent anti-GST antibody (RFU)
Type: binding
Settings: immobilised glycan

OC[C@H]1O[C@H](O[C@H]2[C@@H](O)[C@@H](CO)O[C@@H](O[C@H]3[C@H](O)[C@@H](O)C(O)O[C@@H]3CO)[C@@H]2O)[C@H](O)[C@@H](O)[C@H]1O (stereo partly shown) [compound 117, Galα1-3Galβ1-4Glc]
CFG glycan array, GST-VP8* detected with fluorescent anti-GST antibody (RFU): Four strains exhibited strongest binding signals to the αGal containing glycans
